In article PMC8224687, “Lipophilicity, Pharmacokinetic Properties, and Molecular Docking Study on SARS-CoV-2 Target for Betulin Triazole Derivatives with Attached 1,4-Quinone” (Pharmaceutics, 2021):
Like-named read-outs stand apart in the source and are kept apart here.

Assays:
[1] = pH 7.4
[2] = Experimental lipophilicity by RP-TLC (RM0, logPTLC, hydrophobic index); conditions: for RM0 (chromatographic parameter of lipophilicity): RP-TLC, acetone / TRIS 0.2 M pH 7.4, extrapolated to zero acetone; for chromatographic logP: logPTLC (experimental lipophilicity); for chromatographic logP / logPTLC (experimental lipophilicity): from RM0 by calibration curve Equation (4); for hydrophobic index (φ0): φ0 = −RM0/b
[3] = design: method as in PMID 9879505, doi:10.1021/ja00193a003; conditions: literature values of standard substances ref 52, 53; cited from earlier work

Compound | RM0 (chromatographic parameter of lipophilicity) [1] | RM0 (chromatographic parameter of lipophilicity) [2] | chromatographic logP [2] | hydrophobic index (φ0) [2] | logPTLC (experimental lipophilicity) [2] | logPlit [3] | chromatographic logP (physchem)
CC(=O)c1ccc(Br)cc1 [4-Bromoacetophenone, 4-bromoacetophenone] | 1.89 | – | – | – | – | – | –
CC(=O)Nc1ccccc1 [Acetanilide, acetanilide, reference compound] | – | 0.55 | 1.19 | – | – | – | –
c1ccc2cc3ccccc3cc2c1 [Anthracene, anthracene, reference compound] | – | 3.48 | 4.52 | – | – | – | –
C=C(C)[C@@H]1CC[C@]2(COC(=O)c3cn(CCCOC4=C(Cl)C(=O)c5cccnc5C4=O)nn3)CC[C@]3(C)C(CCC4[C@@]5(C)CC[C@H](O)C(C)(C)C5CC[C@]43C)C12 (stereo partly shown) [Compound 1] | – | 3.51 | – | 82.40 | – | – | –
C=C(C)[C@@H]1CC[C@]2(COC(=O)c3cn(CCCOC4=C(Cl)C(=O)c5cccnc5C4=O)nn3)CC[C@]3(C)C(CCC4[C@@]5(C)CCC(=O)C(C)(C)C5CC[C@]43C)C12 (stereo partly shown) [Compound 2] | – | 3.64 | 4.71 | 83.14 | – | – | –
C=C(C)[C@@H]1CC[C@]2(COC(=O)c3cn(CCCOC4=C(Cl)C(=O)c5cccnc5C4=O)nn3)CC[C@]3(C)C(CCC4[C@@]5(C)CC[C@H](OC(C)=O)C(C)(C)C5CC[C@]43C)C12 (stereo partly shown) [Compound 3] | – | 3.97 | – | 84.76 | 5.08 | – | –
C=C(C)[C@@H]1CC[C@]2(COC(=O)c3cn(CCCOC4=C(Cl)C(=O)c5cccnc5C4=O)nn3)CC[C@]3(C)C(CCC4[C@@]5(C)CC[C@H](OC(=O)CC)C(C)(C)C5CC[C@]43C)C12 (stereo partly shown) [Compound 4] | – | 4.08 | 5.21 | 87.00 | – | – | –
C=C(C)[C@@H]1CC[C@]2(COC(=O)c3cn(CCCOC4=C(Cl)C(=O)c5ccncc5C4=O)nn3)CC[C@]3(C)C(CCC4[C@@]5(C)CC[C@H](O)C(C)(C)C5CC[C@]43C)C12 (stereo partly shown) [Compound 5] | – | 3.56 | – | 79.81 | – | – | –
C=C(C)[C@@H]1CC[C@]2(COC(=O)c3cn(CCCOC4=C(Cl)C(=O)c5ccncc5C4=O)nn3)CC[C@]3(C)C(CCC4[C@@]5(C)CCC(=O)C(C)(C)C5CC[C@]43C)C12 (stereo partly shown) [Compound 6] | – | 3.59 | – | 82.83 | – | – | –
C=C(C)[C@@H]1CC[C@]2(COC(=O)c3cn(CCCOC4=C(Cl)C(=O)c5ccncc5C4=O)nn3)CC[C@]3(C)C(CCC4[C@@]5(C)CC[C@H](OC(C)=O)C(C)(C)C5CC[C@]43C)C12 (stereo partly shown) [Compound 7] | – | 4.07 | 5.2 | 83.48 | – | – | –
C=C(C)[C@@H]1CC[C@]2(COC(=O)c3cn(CCCOC4=C(Cl)C(=O)c5ccncc5C4=O)nn3)CC[C@]3(C)C(CCC4[C@@]5(C)CC[C@H](OC(=O)CC)C(C)(C)C5CC[C@]43C)C12 (stereo partly shown) [Compound 8] | – | 4.24 | – | 88.21 | 5.39 | – | –
C=C(C)[C@@H]1CC[C@]2(COC(=O)c3cn(CCCOC4=C(Cl)C(=O)c5ccc(C)nc5C4=O)nn3)CC[C@]3(C)C(CCC4[C@@]5(C)CC[C@H](O)C(C)(C)C5CC[C@]43C)C12 (stereo partly shown) [Compound 9] | – | 3.65 | 4.72 | 82.43 | – | – | –
C=C(C)[C@@H]1CC[C@]2(COC(=O)c3cn(CCCOC4=C(Cl)C(=O)c5ccc(C)nc5C4=O)nn3)CC[C@]3(C)C(CCC4[C@@]5(C)CCC(=O)C(C)(C)C5CC[C@]43C)C12 (stereo partly shown) [Compound 10] | – | 3.77 | – | 83.85 | – | – | –
C=C(C)[C@@H]1CC[C@]2(COC(=O)c3cn(CCCOC4=C(Cl)C(=O)c5ccc(C)nc5C4=O)nn3)CC[C@]3(C)C(CCC4[C@@]5(C)CC[C@H](OC(C)=O)C(C)(C)C5CC[C@]43C)C12 (stereo partly shown) [Compound 11] | – | 4.12 | – | 85.94 | 5.26 | – | –
C=C(C)[C@@H]1CC[C@]2(COC(=O)c3cn(CCCOC4=C(Cl)C(=O)c5ccc(C)nc5C4=O)nn3)CC[C@]3(C)C(CCC4[C@@]5(C)CC[C@H](OC(=O)CC)C(C)(C)C5CC[C@]43C)C12 (stereo partly shown) [Compound 12] | – | 4.39 | – | 88.32 | 5.56 | – | –
C=C(C)[C@@H]1CC[C@]2(COC(=O)c3cn(CCCOC4=C(Cl)C(=O)c5ccccc5C4=O)nn3)CC[C@]3(C)C(CCC4[C@@]5(C)CC[C@H](O)C(C)(C)C5CC[C@]43C)C12 (stereo partly shown) [Compound 13] | – | 3.78 | – | 87.13 | 4.87 | – | –
C=C(C)[C@@H]1CC[C@]2(COC(=O)c3cn(CCCOC4=C(Cl)C(=O)c5ccccc5C4=O)nn3)CC[C@]3(C)C(CCC4[C@@]5(C)CCC(=O)C(C)(C)C5CC[C@]43C)C12 (stereo partly shown) [Compound 14] | – | 3.84 | – | 87.76 | 4.93 | – | –
C=C(C)[C@@H]1CC[C@]2(COC(=O)c3cn(CCCOC4=C(Cl)C(=O)c5ccccc5C4=O)nn3)CC[C@]3(C)C(CCC4[C@@]5(C)CC[C@H](OC(C)=O)C(C)(C)C5CC[C@]43C)C12 (stereo partly shown) [Compound 15] | – | 4.21 | – | 85.11 | 5.35 | – | –
C=C(C)[C@@H]1CC[C@]2(COC(=O)c3cn(CCCOC4=C(Cl)C(=O)c5ccccc5C4=O)nn3)CC[C@]3(C)C(CCC4[C@@]5(C)CC[C@H](OC(=O)CC)C(C)(C)C5CC[C@]43C)C12 (stereo partly shown) [Compound 16] | – | 4.58 | 5.77 | 86.18 | – | – | –
C=C(C)[C@@H]1CC[C@]2(COC(=O)c3cn(CCCO)nn3)CC[C@]3(C)C(CCC4[C@@]5(C)CC[C@H](O)C(C)(C)C5CC[C@]43C)C12 (stereo partly shown) [Compound 17] | – | 4.40 | 5.57 | 82.62 | – | – | –
C=C(C)[C@@H]1CC[C@]2(COC(=O)c3cn(CCCO)nn3)CC[C@]3(C)C(CCC4[C@@]5(C)CCC(=O)C(C)(C)C5CC[C@]43C)C12 (stereo partly shown) [Compound 18] | – | 4.54 | 5.73 | 83.67 | – | – | –
C=C(C)[C@@H]1CC[C@]2(COC(=O)c3cn(CCCO)nn3)CC[C@]3(C)C(CCC4[C@@]5(C)CC[C@H](OC(C)=O)C(C)(C)C5CC[C@]43C)C12 (stereo partly shown) [Compound 19] | – | 5.07 | 6.33 | 86.06 | – | – | –
C=C(C)[C@@H]1CC[C@]2(COC(=O)c3cn(CCCO)nn3)CC[C@]3(C)C(CCC4[C@@]5(C)CC[C@H](OC(=O)CC)C(C)(C)C5CC[C@]43C)C12 (stereo partly shown) [Compound 20] | – | 5.26 | 6.55 | 87.13 | – | – | –
Clc1ccc(C(c2ccc(Cl)cc2)C(Cl)(Cl)Cl)cc1 [DDT, dichlorodiphenyltrichloroethane, reference compound] | – | 4.87 | – | – | 6.17 | 6.01 | –
c1ccc(CCc2ccccc2)cc1 [Dibenzyl, dibenzyl] | 3.65 | – | – | – | – | – | –
C[C@]12C=CC(=O)C=C1CC[C@@H]1[C@@H]2C(=O)C[C@@]2(C)[C@H]1CC[C@]2(O)C(=O)CO [Prednisone, prednisone, reference compound] | – | 0.73 | – | – | – | – | 1.39
